Common to all, as to type: cell-based
Experiment [1] has as its target T1, rat TRPV1 (rTRPV1) (Rattus norvegicus, UniProt O35433).
T1 construct: expressed in transfected cells; host or cells: HEK293T (transient)
Kind of experiment: live-cell calcium imaging of HEK293T cells transiently expressing rat TRPV1. The conditions noted are these: for compound-evoked calcium response normalized to the capsaicin (2 μM)-evoked response: compound 300 μM (0.3 mM), fura-2-loaded HEK293T transiently expressing rTRPV1, only capsaicin positive cells analyzed. As to the method: (3A) Top: Captured pseudocolor images of fura-2-loaded HEK293T cells transiently expressing rTRPV1, before (“Basal”) and after the application of synthesized tricyclic spirolactones (300 μM; ‘Comp.’), followed by the subsequent application of capsaicin (2 μM; “Cap”). Scale bar indicates level of intracellular calcium. Bottom: Box and whiskers plot showing the indicated compound (300 μM)-evoked calcium response of HEK293T cells expressing rTRPV1, normalized to the capsaicin (2 μM)-evoked response. Boxes represent the mean of 3-4 independent experiments (each n≥50 cells); only capsaicin-positive cells were analyzed. Statistical significance between the different compounds' normalized responses is indicated as follows: *p≤0.05; ***p≤0.001; ns, no statistical significance (ANOVA followed by multiple comparison test). (3B) Top: Captured pseudocolor images of fura-2-loaded HEK293T cells transiently expressing the wt rTRPV1 (“rV1”; top), chicken TRPV1 (“cV1”; middle), or the VBS mutated receptor rTRPV1-Y511G (“YG”; bottom), before (“Basal”) and after the application of compound 13 (300 μM; “13”), which was followed by the subsequent application of 2-APB (300 μM; “2APB”). Scale bar indicates level of intracellular calcium. Bottom: changes with time of intracellular calcium levels in fura-2-loaded HEK293T expressing rat TRPV1 (“rTRPV1”; red line), rat TRPV1-Y511G (“rTRPV1(YG)”; purple line), and chicken TRPV1 (“cTRPV1”; orange line) in response to compound 13 (300 μM; “13”; light gray bar), which was followed by the subsequent application of 2-APB (300 μM; “2APB”; gray bar). Each trace represents an average of 75-130 cells sensitive to 2-APB. […] (3C) Top: Captured pseudocolor images of fura-2-loaded HEK293T cells transiently expressing rTRPV1, before (“Basal”) and after the application of saturated tricyclic spirolactones (300 μM; “Comp.”), which was followed by the subsequent application of capsaicin (2 μM; “Cap”). Scale bar indicates the level of intracellular calcium. […] Boxes represent the mean of 3-4 independent experiments (each n≥50 cells); only capsaicin positive cells were analyzed. Statistical significance between the different compounds' normalized responses is indicated as follows: **p≤0.01; ***p≤0.001; ns, no statistical significance (ANOVA followed by multiple comparison test).
(§1) To examine whether the compact tricyclic spirolactones activate TRPV1, we scanned a library of synthesized compounds illustrated in FIG. 2C. […] To test this possibility, we recoded the response of rTRPV1 transiently expressed in HEK293T cells in the whole-cell or inside-out patch clamp configurations.

The target in experiment [2] is T2, rTRPV1 (Rattus norvegicus, UniProt O35433).
T2 construct: expressed in transfected cells
Kind of experiment: calcium imaging of rTRPV1 stably expressed in HEK293 cells (concentration-response, capsazepine block). The conditions noted are these: for EC50 / Hill coefficient n: normalized concentration-response, fit to the Hill equation, rTRPV1 stably expressed in HEK293 cells. The text has this:
(§2) Each point represents the average (±SEM) response of 50 cells. […] Scale bar indicates level of intracellular calcium.
To further analyze the role of the aromatic anchor in TRPV1 activation by spirolactones, we compared the affinity of 13 to its vanilloid derivative 32.

In experiment [3] the test system is acutely dissociated trigeminal ganglia neurons. Description: neuronal response of acutely dissociated trigeminal ganglia neurons. To be noted: compared with capsaicin sensitivity. As for the experimental part: To examine whether the compact tricyclic spirolactones activate TRPV1, we scanned a library of synthesized compounds illustrated in FIG. 2C. […] Although our compounds are less hydrophobic than other VBS-binding molecules (e.g., capsaicin), most synthesized compounds could not be prepared in physiological salt solutions (i.e., Ringer) at concentrations greater than 1 mM without adding cytotoxic levels of DMSO. […] To confirm that the observed calcium increase is a direct result of TRPV1 activation through the VBS, we used chicken TRPV1, which is insensitive to vanilloids28, and VBS-mutated rat TRPV1 (rTRPV1(Y511G)). […] The functionality and expression of these channels were verified by their sensitivity to 2-aminoethoxydiphenyl borate (2-APB), a non-VBS TRPV1 activator. We next investigated the selectivity of compound 13 to TRPV1 by examining the neuronal response of acutely dissociated trigeminal ganglia neurons. […] A possible explanation to the observed lower response of 13 in comparison to capsaicin might be the accessibility of the compound to the intracellular VBS. To test this possibility, we recoded the response of rTRPV1 transiently expressed in HEK293T cells in the whole-cell or inside-out patch clamp configurations.

Experiment [4] deals with chicken TRPV1. Description: live-cell calcium imaging of HEK293T cells transiently expressing chicken TRPV1. To be noted: compound 300 μM; followed by 2-APB 300 μM. As for the experimental part: (§3) (3A) Top: Captured pseudocolor images of fura-2-loaded HEK293T cells transiently expressing rTRPV1, before (“Basal”) and after the application of synthesized tricyclic spirolactones (300 μM; ‘Comp.’), followed by the subsequent application of capsaicin (2 μM; “Cap”). Scale bar indicates level of intracellular calcium. Bottom: Box and whiskers plot showing the indicated compound (300 μM)-evoked calcium response of HEK293T cells expressing rTRPV1, normalized to the capsaicin (2 μM)-evoked response. Boxes represent the mean of 3-4 independent experiments (each n≥50 cells); only capsaicin-positive cells were analyzed. Statistical significance between the different compounds' normalized responses is indicated as follows: *p≤0.05; ***p≤0.001; ns, no statistical significance (ANOVA followed by multiple comparison test). (3B) Top: Captured pseudocolor images of fura-2-loaded HEK293T cells transiently expressing the wt rTRPV1 (“rV1”; top), chicken TRPV1 (“cV1”; middle), or the VBS mutated receptor rTRPV1-Y511G (“YG”; bottom), before (“Basal”) and after the application of compound 13 (300 μM; “13”), which was followed by the subsequent application of 2-APB (300 μM; “2APB”). Scale bar indicates level of intracellular calcium. […] Boxes represent the mean of 3-4 independent experiments (each n≥50 cells); only capsaicin positive cells were analyzed. […]

Experiment [5] addresses T3, rTRPV1(Y511G) (Rattus norvegicus, UniProt O35433, Y511G).
T3 construct: expressed in transfected cells; host or cells: HEK293T (transient)
Description: live-cell calcium imaging of HEK293T cells transiently expressing VBS-mutated rat TRPV1. The conditions noted are these: compound 300 μM; followed by 2-APB 300 μM. As to the method: as §3

The target of experiment [6] is T1, rat TRPV1 (rTRPV1). Kind of experiment: live-cell calcium imaging of HEK293T cells transiently expressing rat TRPV1. To be noted: compound 18 at 0.3 mM or 1 mM applied before compound 13 (1 mM).
The target of experiment [7] is T2, rTRPV1. Kind of experiment: patch clamp of rTRPV1 transiently expressed in HEK293T cells. To be noted: voltage ramps between −80 and +80 mV; compound 32 1 mM, capsaicin 2 μM.
Description: as §2, §1
TRPV1 is a non-selective cationic ion channel with a typical current profile. To examine whether our novel structure architecture activates the channel similarly as other VBS -associated agonists, we analyzed the current profile using the whole-cell configuration of the patch clamp technique. Using voltage ramps between −80 and +80 mV, we analyzed the channel response to 32 and capsaicin.
(Patch clamp records ionic current or voltage across a cell membrane.)

Values joined by “and” are separate entries in the source; they are usually repeats but may differ in a detail not shown here. Equal values may be shown once. “Also recorded” adds a separate entry of the source.

T2 sequence (O35433 whole entry): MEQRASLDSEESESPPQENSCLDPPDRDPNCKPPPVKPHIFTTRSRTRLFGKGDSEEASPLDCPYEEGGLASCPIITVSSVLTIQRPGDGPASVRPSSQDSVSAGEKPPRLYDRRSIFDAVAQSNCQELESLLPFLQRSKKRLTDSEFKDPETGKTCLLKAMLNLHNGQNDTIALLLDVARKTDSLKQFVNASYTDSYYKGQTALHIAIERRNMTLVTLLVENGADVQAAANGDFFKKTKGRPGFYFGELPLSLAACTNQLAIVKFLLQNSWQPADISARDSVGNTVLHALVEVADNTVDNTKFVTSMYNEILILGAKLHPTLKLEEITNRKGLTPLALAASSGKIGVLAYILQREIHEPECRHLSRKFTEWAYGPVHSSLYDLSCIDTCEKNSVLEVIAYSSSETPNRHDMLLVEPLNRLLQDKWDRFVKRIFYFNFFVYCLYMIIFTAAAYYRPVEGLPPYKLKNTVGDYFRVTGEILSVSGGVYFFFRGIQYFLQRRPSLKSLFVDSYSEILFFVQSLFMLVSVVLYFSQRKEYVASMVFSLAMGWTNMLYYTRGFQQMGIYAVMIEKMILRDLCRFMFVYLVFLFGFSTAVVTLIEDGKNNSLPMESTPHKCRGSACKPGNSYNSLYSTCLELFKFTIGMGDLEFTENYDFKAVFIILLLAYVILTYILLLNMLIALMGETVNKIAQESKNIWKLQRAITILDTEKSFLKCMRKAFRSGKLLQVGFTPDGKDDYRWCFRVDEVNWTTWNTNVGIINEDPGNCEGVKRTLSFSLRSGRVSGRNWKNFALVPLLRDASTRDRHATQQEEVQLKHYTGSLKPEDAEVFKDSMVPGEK
T1 sequence (O35433 whole entry): as above
T3 sequence (O35433 whole entry Y511G): as the sequence (O35433 whole entry) above, with Y511G counted along it

For the compound `C=C1C[C@H]2CCC[C@H]3CC(=O)O[C@@]23C1` [Compound 10], in experiment [1], the “compound-evoked calcium response normalized to the capsaicin (2 μM)-evoked response” value is recorded as “active compounds”.
For `O=C1C[C@@H]2CC[C@@H]3CC=CC[C@]32O1` [Compound 13], in experiment [2], the EC50 is 127 ± 8.9 µM; the Hill coefficient n was 2.7 and 2.7±0.5. Further, the “selectivity to TRPV1: neuronal response” value in experiment [3] was “activated only capsaicin sensitive neurons”. Further, the “compound-evoked calcium response normalized to the capsaicin (2 μM)-evoked response” value in experiment [1] is reported as “unexpectedly robust response”. In addition, the “activation of chicken TRPV1 (intracellular calcium)” value in experiment [4] was “did not activate”. Besides, the “activation of VBS-mutated rTRPV1-Y511G (intracellular calcium)” value in experiment [5] was “did not activate”.
With `CC1C[C@H]2CCC[C@H]3CC(=O)O[C@@]23C1` (some centres unmarked) [Compound 15], the “compound-evoked calcium response normalized to the capsaicin (2 μM)-evoked response” value in experiment [1] was “active compounds”.
Take `O=C1C[C@@H]2CC[C@@H]3CCCC[C@]32O1` [Compound 18]: in experiment [6], the “inhibitory effect on the response of compound 13” value is on record as “had no effect”. Besides, the “compound-evoked calcium response normalized to the capsaicin (2 μM)-evoked response” value in experiment [1] is reported as “most dramatic decrease in the level of activation”.
Take `O=C1C[C@@H]2CC[C@H]3C/C(=C/c4ccccc4)C[C@@]23O1` [Compound 23]: the “compound-evoked calcium response normalized to the capsaicin (2 μM)-evoked response” value in experiment [1] is on record as “no activity was detected”.
Take `O=C1O[C@@]23CC=CC[C@H]2CC[C@H]3[C@H]1Cc1ccccc1` [Compound 31]: the “compound-evoked calcium response normalized to the capsaicin (2 μM)-evoked response” value in experiment [1] was “strongest response; also recorded: capsaicin-like activity”.
In the case of `COc1cc(C[C@H]2C(=O)O[C@@]34CC=CC[C@H]3CC[C@@H]24)ccc1O` [Compound 32], in experiment [2], the concentration for a half-maximal effect (EC50) worked out at 12.8 ± 1.6 µM; the Hill coefficient n was 1.4 and 1.4±0.2. In addition, the “current-voltage profile, whole-cell patch clamp” value in experiment [7] was “robust, outwardly rectifying currents of similar magnitude; also recorded: elicits the typical TRPV1 outwardly rectifying current”. In experiment [1], the “compound-evoked calcium response normalized to the capsaicin (2 μM)-evoked response” value was “strongest response; also recorded: capsaicin-like activity”.
Take `O=C1O[C@@]23CCCC[C@H]2CC[C@H]3[C@H]1Cc1ccccc1` [Compound 34]: the “compound-evoked calcium response normalized to the capsaicin (2 μM)-evoked response” value in experiment [1] is given as “significant channel activation”. Further, the “time course of the evoked calcium response” value in experiment [1] (compound 300 μM, compared to compound 13 or 32) was “transiently response”.
Take `COc1cc(CNC(=O)CCCC/C=C/C(C)C)ccc1O` [capsaicin, reference compound]: the “current-voltage profile, whole-cell patch clamp” value in experiment [7] is reported as “robust, outwardly rectifying currents of similar magnitude”.
As for `Oc1cc2c(cc1O)CN(C(=S)NCCc1ccc(Cl)cc1)CCC2` [capsazepine, reference compound], the “inhibition of TRPV1 activation by compound 32” value in experiment [2] (CPZ 20 μM, pre-incubation or application after pre-activation by 32 (100 and 300 μM)) is listed as “resulted in channel inhibition”.

Usually EC50 stands for the midpoint of the concentration-response curve.

The record behind these values is patent publication US20210163437A1, “DERIVATIVES OF TRICYCLIC SPIROLACTONES AND USES THEREOF IN TREATMENT AND MANAGEMENT OF PAIN” (Yissum Research Development Company of The Hebrew …, priority 2017, published 2021).
